Results published in ChEMBL document CHEMBL1128323, “Antifungal agents. 9. 3-Aryl-4-[alpha-(1H-imidazol-1-yl)arylmethyl]pyrroles: a new class of potent anti-Candida agents” (1995).
Converted amounts (≈) assume the structure as drawn.

Columns and labels:
Type in all cases: functional
Candida albicans [1] = assay: Inhibitory activity against the Candida albicans (40 clinical isolates), determined at pH-7.2
Candida [2] = assay: 50% inhibitory activity against the Candida. species (40 clinical isolates) was determined at pH-7.2
Candida [3] = assay: Percent resistance against all Candida. species (40 clinical isolates) at 256 micro g/mL (pH=7.2), activity is expressed as R%.
Candida albicans [4] = assay: Inhibitory activity against Candida albicans (40 clinical isolates), determined at pH-7.2
Candida albicans [5] = assay: 50% inhibitory activity against Candida albicans (40 clinical isolates) determined at pH-5.8
Candida albicans [6] = assay: Percent resistance against Candida albicans (40 clinical isolates) at 256 micro g/mL (pH=5.8), activity is expressed as R%.
Candida albicans [7] = assay: Inhibitory activity against Candida albicans (40 clinical isolates), determined at pH-5.8
Candida [8] = assay: Inhibitory activity against Candida. species. (40 clinical isolates), determined at pH-5.8
Candida [9] = assay: 90% inhibitory activity against Candida. species (40 clinical isolates) determined at pH-7.2
Candida albicans [10] = assay: Resistance against Candida. albicans (40 clinical isolates) at 256 ug/mL (pH=7.2), activity is expressed as R%.
Candida albicans [11] = assay: 50% inhibitory activity against Candida albicans (40 clinical isolates) determined at pH-7.2; details: Candida albicans; read-out: MIC50
Candida [12] = assay: Inhibitory activity against Candida. species (40 clinical isolates), determined at pH-5.8
Candida [13] = assay: Resistance against all Candida. species (40 clinical isolates) at 256 micro g/mL (pH=5.8). Activity is expressed as R%.
Candida albicans [14] = assay: Inhibitory activity against the Candida albicans (40 clinical isolates), determined at pH-5.8
Candida [15] = assay: Inhibitory activity against Candida. species. (40 clinical isolates), determined at pH-7.2

| Structure (SMILES) | MIC90 (Candida albicans [1]) [µg/mL] | MIC50 (Candida [2]) [µg/mL] | R (Candida [3]) [%] | MIC (Candida albicans [4]) [µg/mL] | MIC50 (Candida albicans [5]) [µg/mL] | R (Candida albicans [6]) [%] | MIC (Candida albicans [7]) [µg/mL] | MIC (Candida [8]) [µg/mL] | MIC90 (Candida [9]) [µg/mL] | R (Candida albicans [10]) [%] | MIC50 (Candida albicans [11]) [µg/mL] | MIC50 (Candida [12]) [µg/mL] | MIC90 (Candida [12]) [µg/mL] | R (Candida [13]) [%] | MIC90 (Candida albicans [14]) [µg/mL] | MIC (Candida [15]) [µg/mL] |
| --- | --- | --- | --- | --- | --- | --- | --- | --- | --- | --- | --- | --- | --- | --- | --- | --- |
| Clc1ccccc1-c1c[nH]cc1C(c1ccc(-n2cccc2)cc1)n1ccnc1 (stereo not drawn) | 64 (≈ 160 µM) | 16 (≈ 40.1 µM) | 0 | 25.3 (≈ 63.4 µM) | 8 (≈ 20.1 µM) | 0 | 20.5 (≈ 51.4 µM) | 30.2 (≈ 75.7 µM) | 64 (≈ 160 µM) | 0 | 8 (≈ 20.1 µM) | 32 (≈ 80.2 µM) | 32 (≈ 80.2 µM) | 0 | 16 (≈ 40.1 µM) | 24.1 (≈ 60.4 µM) |
| Clc1ccc(-c2c[nH]cc2C(c2cccc3ccccc23)n2ccnc2)cc1 (stereo not drawn) | 16 (≈ 41.7 µM) | 16 (≈ 41.7 µM) | 0 | 10.1 (≈ 26.3 µM) | 4 (≈ 10.4 µM) | 0 | 11.2 (≈ 29.2 µM) | 16.6 (≈ 43.2 µM) | 32 (≈ 83.4 µM) | 0 | 1 (≈ 2.6 µM) | 8 (≈ 20.8 µM) | 32 (≈ 83.4 µM) | 0 | 16 (≈ 41.7 µM) | 29 (≈ 75.5 µM) |
| Clc1ccc(C(c2c[nH]cc2-c2ccc(Cl)c(Cl)c2)n2ccnc2)c(Cl)c1 (stereo not drawn) | 16 (≈ 36.6 µM) | 32 (≈ 73.2 µM) | 0 | 5.8 (≈ 13.3 µM) | 2 (≈ 4.58 µM) | 0 | 5.9 (≈ 13.5 µM) | 27.7 (≈ 63.4 µM) | 32 (≈ 73.2 µM) | 0 | 2 (≈ 4.58 µM) | 32 (≈ 73.2 µM) | 32 (≈ 73.2 µM) | 0 | 16 (≈ 36.6 µM) | 38.2 (≈ 87.4 µM) |
| Clc1ccc(C(c2c[nH]cc2-c2ccccc2Cl)n2ccnc2)cc1Cl (stereo not drawn) | 32 (≈ 79.5 µM) | 32 (≈ 79.5 µM) | 0 | 12.7 (≈ 31.5 µM) | 8 (≈ 19.9 µM) | 0 | 13.8 (≈ 34.3 µM) | 24.8 (≈ 61.6 µM) | 64 (≈ 159 µM) | 0 | 16 (≈ 39.7 µM) | 32 (≈ 79.5 µM) | 32 (≈ 79.5 µM) | 0 | 32 (≈ 79.5 µM) | 36.2 (≈ 89.9 µM) |
| Clc1ccc(-c2c[nH]cc2C(c2ccc(Cl)c(Cl)c2)n2ccnc2)c(Cl)c1 (stereo not drawn) | 32 (≈ 73.2 µM) | 16 (≈ 36.6 µM) | 0 | 19.6 (≈ 44.8 µM) | 2 (≈ 4.58 µM) | 0 | 7.2 (≈ 16.5 µM) | 14.2 (≈ 32.5 µM) | 32 (≈ 73.2 µM) | 0 | 16 (≈ 36.6 µM) | 16 (≈ 36.6 µM) | 16 (≈ 36.6 µM) | 0 | 32 (≈ 73.2 µM) | 21.3 (≈ 48.7 µM) |
| Fc1ccc(C(c2c[nH]cc2-c2ccc(Cl)cc2)n2ccnc2)cc1 (stereo not drawn) | 32 (≈ 91 µM) | 32 (≈ 91 µM) | 0 | 19.2 (≈ 54.6 µM) | 32 (≈ 91 µM) | 0 | 15.4 (≈ 43.8 µM) | 26.6 (≈ 75.6 µM) | 64 (≈ 182 µM) | 0 | 16 (≈ 45.5 µM) | 32 (≈ 91 µM) | 32 (≈ 91 µM) | 0 | 64 (≈ 182 µM) | 31.8 (≈ 90.4 µM) |
| Cc1ccc(C(c2c[nH]cc2-c2ccc(Cl)cc2)n2ccnc2)cc1 (stereo not drawn) | 32 (≈ 92 µM) | 16 (≈ 46 µM) | 0 | 18.9 (≈ 54.3 µM) | 16 (≈ 46 µM) | 0 | 12.3 (≈ 35.4 µM) | 20.4 (≈ 58.6 µM) | 32 (≈ 92 µM) | 0 | 16 (≈ 46 µM) | 16 (≈ 46 µM) | 32 (≈ 92 µM) | 0 | 32 (≈ 92 µM) | 23.1 (≈ 66.4 µM) |
| Clc1ccc(-c2c[nH]cc2C(c2ccccc2)n2ccnc2)c(Cl)c1 (stereo not drawn) | 16 (≈ 43.4 µM) | 16 (≈ 43.4 µM) | 0 | 5.4 (≈ 14.7 µM) | 4 (≈ 10.9 µM) | 0 | 8.4 (≈ 22.8 µM) | 23.5 (≈ 63.8 µM) | 32 (≈ 86.9 µM) | 0 | 2 (≈ 5.43 µM) | 32 (≈ 86.9 µM) | 32 (≈ 86.9 µM) | 0 | 16 (≈ 43.4 µM) | 16.6 (≈ 45.1 µM) |
| Nc1ccc(C(c2c[nH]cc2-c2ccccc2Cl)n2ccnc2)cc1 (stereo not drawn) | 256 (≈ 734 µM) | 256 (≈ 734 µM) | 50 | 131 (≈ 376 µM) | 64 (≈ 183 µM) | 0 | 100 (≈ 288 µM) | 201 (≈ 576 µM) | 256 (≈ 734 µM) | 0 | 64 (≈ 183 µM) | 256 (≈ 734 µM) | 256 (≈ 734 µM) | 50 | 256 (≈ 734 µM) | > 222 |
| O=[N+]([O-])c1ccc(C(c2c[nH]cc2-c2ccccc2Cl)n2ccnc2)cc1 (stereo not drawn) | 256 (≈ 676 µM) | 64 (≈ 169 µM) | 30 | > 91.6 | 32 (≈ 84.5 µM) | 0 | > 50.7 | 48.4 (≈ 128 µM) | > 256 | 15 | 32 (≈ 84.5 µM) | 64 (≈ 169 µM) | 64 (≈ 169 µM) | 0 | 64 (≈ 169 µM) | > 200 |
| Clc1ccc(-c2c[nH]cc2C(c2ccc(-c3ccccc3)cc2)n2ccnc2)cc1 (stereo not drawn) | 256 (≈ 625 µM) | > 256 | 60 | > 150 | 8 (≈ 19.5 µM) | 0 | > 26.5 | 28.4 (≈ 69.3 µM) | > 256 | 40 | 64 (≈ 156 µM) | 32 (≈ 78.1 µM) | 128 (≈ 312 µM) | 0 | 256 (≈ 625 µM) | > 352 |
| Clc1ccc(-c2c[nH]cc2C(c2ccc(Cl)c(Cl)c2)n2ccnc2)cc1 (stereo not drawn) | 64 (≈ 159 µM) | 64 (≈ 159 µM) | 10 | 19.3 (≈ 48 µM) | 4 (≈ 9.93 µM) | 0 | 14.4 (≈ 35.8 µM) | 32.2 (≈ 80 µM) | 64 (≈ 159 µM) | 0 | 2 (≈ 4.97 µM) | 32 (≈ 79.5 µM) | 64 (≈ 159 µM) | 0 | 64 (≈ 159 µM) | 91.3 (≈ 227 µM) |
| Clc1ccc(-c2c[nH]cc2C(c2ccc(Cl)cc2)n2ccnc2)cc1 (stereo not drawn) | 32 (≈ 86.9 µM) | 16 (≈ 43.4 µM) | 0 | 16.3 (≈ 44.3 µM) | 8 (≈ 21.7 µM) | 0 | 12.3 (≈ 33.4 µM) | 20.2 (≈ 54.9 µM) | 32 (≈ 86.9 µM) | 0 | 16 (≈ 43.4 µM) | 16 (≈ 43.4 µM) | 32 (≈ 86.9 µM) | 0 | 32 (≈ 86.9 µM) | 21.3 (≈ 57.8 µM) |
